Experimental data: ChEMBL document CHEMBL5291721, “A preclinical secondary pharmacology resource illuminates target-adverse drug reaction associations of marketed drugs” (Nat Commun, 2023)

How the values were obtained:
Acetylcholinesterase = Acetylcholinesterase (Homo sapiens, UniProt P22303); type: functional
Thromboxane A2 receptor [1] = target: T1, Thromboxane A2 receptor (Homo sapiens, UniProt P21731); type: functional, cell-based
T1 sequence (P21731 whole entry): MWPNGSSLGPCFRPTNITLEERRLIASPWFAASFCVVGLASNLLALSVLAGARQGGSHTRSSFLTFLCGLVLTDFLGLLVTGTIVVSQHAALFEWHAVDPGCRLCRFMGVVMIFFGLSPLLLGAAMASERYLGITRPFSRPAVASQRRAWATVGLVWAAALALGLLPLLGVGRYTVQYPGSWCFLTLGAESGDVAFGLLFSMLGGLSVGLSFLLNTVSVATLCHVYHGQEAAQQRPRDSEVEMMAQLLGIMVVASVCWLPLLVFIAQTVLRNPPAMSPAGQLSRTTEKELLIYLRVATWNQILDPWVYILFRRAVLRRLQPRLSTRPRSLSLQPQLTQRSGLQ

Histamine H3 receptor = Histamine H3 receptor (Homo sapiens, UniProt Q9Y5N1)
[2] = target: T2, Amine oxidase [flavin-containing] A (Homo sapiens, UniProt P21397); type: functional
T2 sequence (P21397 whole entry): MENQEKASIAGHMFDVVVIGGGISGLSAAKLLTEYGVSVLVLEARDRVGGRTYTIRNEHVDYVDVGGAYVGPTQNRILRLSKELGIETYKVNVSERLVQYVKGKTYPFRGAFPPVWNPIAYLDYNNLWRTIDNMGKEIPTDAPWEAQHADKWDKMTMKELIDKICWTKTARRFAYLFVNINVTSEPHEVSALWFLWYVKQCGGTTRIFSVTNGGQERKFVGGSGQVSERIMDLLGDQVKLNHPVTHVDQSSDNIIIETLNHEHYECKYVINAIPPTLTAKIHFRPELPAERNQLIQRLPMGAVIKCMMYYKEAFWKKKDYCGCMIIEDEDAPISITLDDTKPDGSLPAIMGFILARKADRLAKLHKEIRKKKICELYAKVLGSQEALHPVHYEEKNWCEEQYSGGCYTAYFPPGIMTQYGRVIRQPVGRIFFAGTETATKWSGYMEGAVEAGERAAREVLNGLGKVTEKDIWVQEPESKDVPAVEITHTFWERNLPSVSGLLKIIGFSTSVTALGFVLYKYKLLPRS

[3] = target: T3, Alpha-2A adrenergic receptor (Homo sapiens, UniProt P08913)
T3 sequence (P08913 whole entry): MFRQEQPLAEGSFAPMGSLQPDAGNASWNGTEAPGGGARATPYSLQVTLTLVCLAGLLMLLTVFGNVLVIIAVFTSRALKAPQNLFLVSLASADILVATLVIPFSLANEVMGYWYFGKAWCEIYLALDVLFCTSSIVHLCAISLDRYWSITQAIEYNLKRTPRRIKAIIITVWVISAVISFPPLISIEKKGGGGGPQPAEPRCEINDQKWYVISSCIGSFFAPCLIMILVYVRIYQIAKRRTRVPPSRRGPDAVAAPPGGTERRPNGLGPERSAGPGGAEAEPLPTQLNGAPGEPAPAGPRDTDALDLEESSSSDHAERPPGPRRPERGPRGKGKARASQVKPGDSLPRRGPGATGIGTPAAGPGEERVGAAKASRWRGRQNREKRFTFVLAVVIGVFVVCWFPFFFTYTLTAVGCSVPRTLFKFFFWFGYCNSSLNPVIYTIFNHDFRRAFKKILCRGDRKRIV

[4] = target: T4, 5-hydroxytryptamine receptor 1A (Homo sapiens, UniProt P08908)
T4 sequence (P08908 whole entry): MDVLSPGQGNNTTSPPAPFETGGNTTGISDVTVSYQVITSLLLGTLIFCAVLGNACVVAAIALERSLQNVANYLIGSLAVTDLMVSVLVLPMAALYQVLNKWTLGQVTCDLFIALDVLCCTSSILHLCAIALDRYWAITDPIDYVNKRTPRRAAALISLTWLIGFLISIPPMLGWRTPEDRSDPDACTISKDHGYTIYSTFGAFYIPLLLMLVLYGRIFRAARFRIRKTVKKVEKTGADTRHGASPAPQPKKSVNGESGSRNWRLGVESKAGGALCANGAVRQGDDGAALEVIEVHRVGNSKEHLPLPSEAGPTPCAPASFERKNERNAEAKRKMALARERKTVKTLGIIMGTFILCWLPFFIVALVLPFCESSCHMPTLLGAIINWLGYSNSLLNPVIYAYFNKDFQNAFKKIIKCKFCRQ

[5] = target: Gamma-aminobutyric acid receptor subunit alpha-1 (Rattus norvegicus, UniProt P62813)
[6] = target: 5-hydroxytryptamine receptor 2B (Homo sapiens, UniProt P41595); type: functional, cell-based
[7] = target: T5, Muscarinic acetylcholine receptor M2 (Homo sapiens, UniProt P08172)
T5 sequence (P08172 whole entry): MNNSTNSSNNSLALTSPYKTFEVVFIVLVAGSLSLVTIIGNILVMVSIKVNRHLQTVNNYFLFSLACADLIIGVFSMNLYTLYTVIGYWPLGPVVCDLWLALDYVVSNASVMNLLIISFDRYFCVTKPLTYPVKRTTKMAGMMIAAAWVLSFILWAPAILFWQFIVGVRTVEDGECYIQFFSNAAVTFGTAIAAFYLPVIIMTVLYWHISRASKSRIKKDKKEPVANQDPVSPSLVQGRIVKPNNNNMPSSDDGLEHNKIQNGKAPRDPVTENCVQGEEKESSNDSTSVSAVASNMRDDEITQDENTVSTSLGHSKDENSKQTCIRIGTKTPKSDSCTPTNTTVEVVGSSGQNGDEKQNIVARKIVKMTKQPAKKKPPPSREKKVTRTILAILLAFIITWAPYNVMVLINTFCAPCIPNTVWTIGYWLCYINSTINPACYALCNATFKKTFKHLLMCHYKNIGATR

[8] = target: Sodium-dependent dopamine transporter (Homo sapiens, UniProt Q01959)
[9] = target: cGMP-inhibited 3',5'-cyclic phosphodiesterase 3A (Homo sapiens, UniProt Q14432); type: functional
Thromboxane A2 receptor [10] = target: T1, Thromboxane A2 receptor; type: functional, cell-based; remark: listed apart in the source
[11] = target: 3',5'-cyclic-AMP phosphodiesterase 4A (Homo sapiens, UniProt P27815); type: functional
Prothrombin = Prothrombin (Homo sapiens, UniProt P00734); type: functional
[12] = target: Voltage-gated inwardly rectifying potassium channel KCNH2 (Homo sapiens, UniProt Q12809); type: functional
Note: assay procedure not described here.

Sequence of Voltage-gated inwardly rectifying potassium channel KCNH2 (Q12809 whole entry): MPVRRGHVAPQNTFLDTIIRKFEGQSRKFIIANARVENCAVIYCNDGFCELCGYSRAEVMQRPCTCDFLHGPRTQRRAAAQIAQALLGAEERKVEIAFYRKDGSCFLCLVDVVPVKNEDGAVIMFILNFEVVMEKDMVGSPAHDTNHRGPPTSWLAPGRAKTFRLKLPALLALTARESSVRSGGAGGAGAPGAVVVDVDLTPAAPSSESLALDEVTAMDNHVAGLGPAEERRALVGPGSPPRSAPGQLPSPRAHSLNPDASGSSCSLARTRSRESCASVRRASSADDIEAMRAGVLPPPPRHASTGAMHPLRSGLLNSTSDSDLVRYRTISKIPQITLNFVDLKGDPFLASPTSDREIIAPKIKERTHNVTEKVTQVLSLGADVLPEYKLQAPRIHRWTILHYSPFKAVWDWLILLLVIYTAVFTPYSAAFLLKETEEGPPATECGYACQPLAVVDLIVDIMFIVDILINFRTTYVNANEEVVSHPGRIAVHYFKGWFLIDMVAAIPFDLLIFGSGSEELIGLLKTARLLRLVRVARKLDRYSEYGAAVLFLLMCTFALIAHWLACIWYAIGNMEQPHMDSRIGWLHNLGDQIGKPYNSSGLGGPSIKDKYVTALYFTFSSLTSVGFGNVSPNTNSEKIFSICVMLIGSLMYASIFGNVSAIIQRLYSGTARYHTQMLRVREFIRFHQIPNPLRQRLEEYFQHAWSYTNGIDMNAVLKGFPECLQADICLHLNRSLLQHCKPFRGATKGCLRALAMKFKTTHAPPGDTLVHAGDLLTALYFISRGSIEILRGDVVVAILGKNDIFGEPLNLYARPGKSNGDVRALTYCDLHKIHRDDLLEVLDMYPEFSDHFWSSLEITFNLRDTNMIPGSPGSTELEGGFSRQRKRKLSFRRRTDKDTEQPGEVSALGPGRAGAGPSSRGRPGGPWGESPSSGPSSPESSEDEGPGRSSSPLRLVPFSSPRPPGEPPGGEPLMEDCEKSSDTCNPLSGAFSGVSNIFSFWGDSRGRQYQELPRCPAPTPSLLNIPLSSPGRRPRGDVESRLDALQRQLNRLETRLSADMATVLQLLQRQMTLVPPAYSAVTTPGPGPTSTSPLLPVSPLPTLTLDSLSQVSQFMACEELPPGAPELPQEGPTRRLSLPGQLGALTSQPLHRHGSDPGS
Sequence of Histamine H3 receptor (Q9Y5N1 whole entry): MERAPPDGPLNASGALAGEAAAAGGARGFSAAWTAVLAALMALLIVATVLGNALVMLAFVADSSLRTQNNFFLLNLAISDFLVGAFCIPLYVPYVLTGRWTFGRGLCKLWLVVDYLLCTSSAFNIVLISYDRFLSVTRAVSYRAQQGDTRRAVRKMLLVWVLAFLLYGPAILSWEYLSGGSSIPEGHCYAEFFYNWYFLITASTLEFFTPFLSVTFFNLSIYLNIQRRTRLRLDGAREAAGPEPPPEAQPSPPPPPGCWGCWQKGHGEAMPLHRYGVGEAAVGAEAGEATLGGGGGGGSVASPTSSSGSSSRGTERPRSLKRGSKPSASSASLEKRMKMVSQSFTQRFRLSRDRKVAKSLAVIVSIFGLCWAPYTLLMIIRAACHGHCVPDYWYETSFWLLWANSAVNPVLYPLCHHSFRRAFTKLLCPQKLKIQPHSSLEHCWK
Sequence of 5-hydroxytryptamine receptor 2B (P41595 whole entry): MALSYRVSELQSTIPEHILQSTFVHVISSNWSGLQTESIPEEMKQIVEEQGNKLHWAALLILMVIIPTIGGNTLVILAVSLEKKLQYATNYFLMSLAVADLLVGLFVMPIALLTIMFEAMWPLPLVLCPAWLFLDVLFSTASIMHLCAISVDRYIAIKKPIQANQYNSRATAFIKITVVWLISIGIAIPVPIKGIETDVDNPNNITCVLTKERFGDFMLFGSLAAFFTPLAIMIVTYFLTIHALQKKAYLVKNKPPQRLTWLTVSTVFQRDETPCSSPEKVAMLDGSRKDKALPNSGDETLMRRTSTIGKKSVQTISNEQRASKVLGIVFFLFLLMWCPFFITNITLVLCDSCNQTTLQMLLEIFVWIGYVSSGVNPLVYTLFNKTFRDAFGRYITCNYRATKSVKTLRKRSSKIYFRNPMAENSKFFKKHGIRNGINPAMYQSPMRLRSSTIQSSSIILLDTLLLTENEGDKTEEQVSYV
Sequence of 3',5'-cyclic-AMP phosphodiesterase 4A (P27815 whole entry): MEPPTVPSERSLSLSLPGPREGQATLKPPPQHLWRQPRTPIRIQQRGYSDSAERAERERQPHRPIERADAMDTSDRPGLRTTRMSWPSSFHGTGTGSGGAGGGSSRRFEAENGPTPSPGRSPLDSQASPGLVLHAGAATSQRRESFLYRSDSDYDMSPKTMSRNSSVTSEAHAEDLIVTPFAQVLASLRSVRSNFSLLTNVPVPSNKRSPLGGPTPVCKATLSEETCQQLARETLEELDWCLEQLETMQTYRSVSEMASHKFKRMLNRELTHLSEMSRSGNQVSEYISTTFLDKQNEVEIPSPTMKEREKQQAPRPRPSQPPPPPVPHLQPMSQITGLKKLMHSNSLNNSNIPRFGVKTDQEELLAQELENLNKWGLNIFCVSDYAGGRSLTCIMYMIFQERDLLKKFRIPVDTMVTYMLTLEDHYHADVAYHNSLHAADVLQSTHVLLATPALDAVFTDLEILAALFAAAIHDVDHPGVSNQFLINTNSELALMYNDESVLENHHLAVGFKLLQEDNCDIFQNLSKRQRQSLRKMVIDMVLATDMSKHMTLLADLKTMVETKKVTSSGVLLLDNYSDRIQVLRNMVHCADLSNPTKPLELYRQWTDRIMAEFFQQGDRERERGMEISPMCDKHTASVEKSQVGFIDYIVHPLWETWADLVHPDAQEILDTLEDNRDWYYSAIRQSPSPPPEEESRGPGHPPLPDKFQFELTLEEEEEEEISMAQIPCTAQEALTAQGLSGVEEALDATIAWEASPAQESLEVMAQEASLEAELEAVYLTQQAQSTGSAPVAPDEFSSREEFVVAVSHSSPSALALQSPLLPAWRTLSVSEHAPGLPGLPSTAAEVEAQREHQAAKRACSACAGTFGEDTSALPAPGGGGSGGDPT
Sequence of Gamma-aminobutyric acid receptor subunit alpha-1 (P62813 whole entry): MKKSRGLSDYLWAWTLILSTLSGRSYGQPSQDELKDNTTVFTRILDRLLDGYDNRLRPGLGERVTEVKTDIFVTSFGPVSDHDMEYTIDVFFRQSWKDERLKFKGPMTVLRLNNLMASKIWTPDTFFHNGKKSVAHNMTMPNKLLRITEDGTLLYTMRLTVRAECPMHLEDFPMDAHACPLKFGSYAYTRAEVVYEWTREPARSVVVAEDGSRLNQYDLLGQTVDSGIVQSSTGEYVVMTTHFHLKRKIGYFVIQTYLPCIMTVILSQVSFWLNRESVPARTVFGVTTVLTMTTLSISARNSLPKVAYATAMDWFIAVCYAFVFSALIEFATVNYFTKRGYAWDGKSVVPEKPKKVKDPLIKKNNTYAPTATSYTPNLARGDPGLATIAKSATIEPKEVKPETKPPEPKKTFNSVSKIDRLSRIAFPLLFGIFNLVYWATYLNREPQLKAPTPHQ
Sequence of cGMP-inhibited 3',5'-cyclic phosphodiesterase 3A (Q14432 whole entry): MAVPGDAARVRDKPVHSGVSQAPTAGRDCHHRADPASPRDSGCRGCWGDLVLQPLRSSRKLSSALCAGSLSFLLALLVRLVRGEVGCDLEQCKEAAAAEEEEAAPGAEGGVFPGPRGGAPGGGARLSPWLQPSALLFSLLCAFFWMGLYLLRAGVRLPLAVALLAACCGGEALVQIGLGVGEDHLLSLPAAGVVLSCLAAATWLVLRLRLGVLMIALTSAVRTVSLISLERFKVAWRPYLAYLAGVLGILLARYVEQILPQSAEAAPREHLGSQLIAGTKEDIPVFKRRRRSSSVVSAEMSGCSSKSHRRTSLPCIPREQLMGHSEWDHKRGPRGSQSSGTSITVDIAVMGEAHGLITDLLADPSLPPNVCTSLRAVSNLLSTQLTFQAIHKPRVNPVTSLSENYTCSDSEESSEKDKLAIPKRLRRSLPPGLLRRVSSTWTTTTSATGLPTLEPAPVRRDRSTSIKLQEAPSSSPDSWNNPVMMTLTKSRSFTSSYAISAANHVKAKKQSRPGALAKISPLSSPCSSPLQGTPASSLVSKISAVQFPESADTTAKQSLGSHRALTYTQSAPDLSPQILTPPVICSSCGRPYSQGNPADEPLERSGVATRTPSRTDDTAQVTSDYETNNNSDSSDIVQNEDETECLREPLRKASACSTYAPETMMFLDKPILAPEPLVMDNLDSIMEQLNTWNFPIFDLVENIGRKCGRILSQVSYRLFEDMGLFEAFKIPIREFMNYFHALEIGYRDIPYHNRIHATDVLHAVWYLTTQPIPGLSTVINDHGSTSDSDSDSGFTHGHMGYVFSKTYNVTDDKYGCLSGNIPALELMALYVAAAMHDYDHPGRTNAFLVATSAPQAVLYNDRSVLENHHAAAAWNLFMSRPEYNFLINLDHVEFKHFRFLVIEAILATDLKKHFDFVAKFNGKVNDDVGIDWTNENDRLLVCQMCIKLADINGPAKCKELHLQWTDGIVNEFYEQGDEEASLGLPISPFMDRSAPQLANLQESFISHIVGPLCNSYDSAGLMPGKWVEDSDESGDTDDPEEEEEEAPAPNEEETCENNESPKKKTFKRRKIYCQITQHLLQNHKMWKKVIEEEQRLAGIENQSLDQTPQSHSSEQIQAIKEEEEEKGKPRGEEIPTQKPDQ

Structure (SMILES)	AC50 (Acetylcholinesterase)	AC50 (Thromboxane A2 receptor [1])	AC50 (Histamine H3 receptor)	AC50 [2]	AC50 [3]	AC50 [4]	AC50 [5]	AC50 [6]	AC50 [7]	AC50 [8]	AC50 [9]	AC50 (Thromboxane A2 receptor [10])	AC50 [11]	AC50 (Prothrombin)	AC50 [12]
O=C(/C=C/c1cccc(S(=O)(=O)Nc2ccccc2)c1)NO [BELINOSTAT]	> 30 µM	> 30 µM	> 30 µM	> 30 µM	> 30 µM	> 30 µM	> 10 µM	> 30 µM	> 30 µM	> 30 µM	> 30 µM	> 30 µM	23.7 µM	> 30 µM	
CC(O)(CS(=O)(=O)c1ccc(F)cc1)C(=O)Nc1ccc(C#N)c(C(F)(F)F)c1 (stereo not given) [BICALUTAMIDE]	> 30 µM	> 3 µM	> 30 µM	> 30 µM	> 30 µM	> 30 µM	> 10 µM	> 30 µM	> 30 µM	> 30 µM	> 30 µM	> 10 µM	> 30 µM	> 30 µM	> 30 µM
NC[C@H]1CC[C@H](C(=O)Oc2ccc(CCC(=O)O)cc2)CC1 [CETRAXATE]	> 30 µM	> 30 µM	> 30 µM	> 30 µM	> 30 µM	> 30 µM	> 30 µM	> 30 µM	> 30 µM	> 30 µM	> 30 µM	> 30 µM	> 30 µM	4.35 µM	> 30 µM
Cc1cn([C@H]2O[C@@H](CO)[C@H](O)[C@H]2F)c(=O)[nH]c1=O [CLEVUDINE]	> 30 µM	> 30 µM	> 30 µM	> 30 µM	> 30 µM	> 30 µM		> 30 µM	> 30 µM	> 30 µM	> 30 µM	> 30 µM	> 30 µM	> 30 µM	
CC(=O)O[C@]1(C(C)=O)CC[C@H]2[C@@H]3C=C(Cl)C4=CC(=O)[C@@H]5C[C@@H]5[C@]4(C)[C@H]3CC[C@@]21C [CYPROTERONE ACETATE]	> 30 µM	> 3 µM	> 30 µM	> 30 µM	> 30 µM	> 30 µM	> 10 µM	> 30 µM	9.17 µM	> 30 µM	> 30 µM	> 30 µM	> 30 µM	> 30 µM	> 30 µM
CC(=O)[C@H]1CC[C@H]2[C@@H]3C=CC4=CC(=O)CC[C@@]4(C)[C@@H]3CC[C@]12C [DYDROGESTERONE]	> 30 µM	25.1 µM	> 30 µM	> 30 µM	> 30 µM	> 30 µM		> 30 µM	> 30 µM	> 30 µM	> 30 µM	> 30 µM	> 30 µM	> 30 µM	
